Measurements taken from ChEMBL document CHEMBL1201862, “PubChem BioAssay data set” (2004).
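Five concentrations, 48 hours, 96-well plates. Abbreviation: GI50, concentration required for 50% inhibition of growth.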 Activity calls are given as the source filed them. Cut-off read from the data, not from the text of the source: active = GI50 up to about 1.1 µM and inactive = higher. Where a SMILES comes first, the peptide text is derived from it. The star is where a group is joined. Boc = CC(C)(C)OC(=O)*

Key:
Test in all cases: NCI anticancer screen, dose series, 48 h
[1] = system: DU-145
[2] = system: NCI/ADR-RES
[3] = system: Hs-578T
[4] = system: NCI-H226
[5] = system: M14
[6] = system: SK-MEL-2
[7] = system: COLO 205
[8] = system: SW-620
[9] = system: HCT-116
[10] = system: RXF 393
[11] = system: 786-0
[12] = system: HL-60
[13] = system: HCC 2998
[14] = system: SNB-75
[15] = system: UO-31
[16] = system: A498
[17] = system: OVCAR-5
[18] = system: UACC-257
[19] = system: TK-10
[20] = system: MDA-N

Measured: GI50

Cn1ccc(C(=O)NCCN(CCNC(=O)c2ccn(C)c(=O)c2O)CCNC(=O)c2cccc(=O)n2O)c(O)c1=O
inactive: [1] > 100 µM | [2] > 100 µM | [3] > 100 µM | [4] > 100 µM | [5] > 100 µM | [6] > 100 µM | [7] > 100 µM | [8] > 100 µM | [9] > 100 µM | [10] > 100 µM | [11] > 100 µM | [12] > 100 µM | [13] > 100 µM | [14] > 100 µM | [15] > 100 µM | [16] > 100 µM | [17] > 100 µM | [18] > 100 µM

Nc1nc(-c2ccccc2)nc2c1[n+]([O-])c1ccccc1[n+]2[O-]
inactive: [1] > 100 µM | [2] > 100 µM | [3] > 100 µM | [4] > 100 µM | [5] > 100 µM | [6] > 100 µM | [7] > 100 µM | [8] > 100 µM | [9] > 100 µM | [10] > 100 µM | [11] > 100 µM | [12] > 100 µM | [19] > 100 µM | [13] > 100 µM | [15] > 100 µM | [16] > 100 µM | [17] > 100 µM | [18] > 100 µM

Cc1cc(C)nc(NS(=O)(=O)c2ccc(NC(=O)c3c4ccccc4nc4ccccc34)cc2)n1
inactive: [1] 93.1 µM | [2] > 100 µM | [4] 35.9 µM | [5] > 100 µM | [6] > 100 µM | [7] 75.2 µM | [8] > 100 µM | [9] 68.4 µM | [11] 49 µM | [20] > 100 µM | [19] 82.2 µM | [13] > 100 µM | [14] > 100 µM | [15] 37.4 µM | [16] > 100 µM | [17] > 100 µM | [18] > 100 µM

CCOC(=O)/C=C(/C(=O)OCC)n1ccc(=O)n(Cc2cnnn2CCCCOC(C)=O)c1=O
inactive: [1] > 100 µM | [2] > 100 µM | [3] > 100 µM | [4] > 100 µM | [6] > 100 µM | [7] 19.1 µM | [8] 20.1 µM | [9] > 100 µM | [10] > 100 µM | [11] 18.5 µM | [20] > 100 µM | [19] 32.8 µM | [13] > 100 µM | [14] > 100 µM | [15] > 100 µM | [17] > 100 µM | [18] > 100 µM

COc1cccc(C2c3cc4c(cc3OC(N3CCCC3)C2C)OCO4)c1OC (centres undefined)
inactive: [1] 2.01 µM | [2] 2.32 µM | [3] 1.59 µM | [5] 9.08 µM | [6] 3.89 µM | [7] 3.46 µM | [8] 1.65 µM | [9] 1.64 µM | [11] 3.89 µM | [20] 4.76 µM | [19] 5.74 µM | [15] 2.27 µM | [17] 3.67 µM | [18] 1.72 µM

CCSc1n/c(=C\c2ccco2)c2nncn12
inactive: [1] > 100 µM | [2] > 100 µM | [3] > 100 µM | [4] > 100 µM | [5] > 100 µM | [6] > 100 µM | [7] > 100 µM | [8] > 100 µM | [9] > 100 µM | [11] > 100 µM | [12] > 100 µM | [20] > 100 µM | [19] > 100 µM | [14] > 100 µM | [15] > 100 µM | [17] > 100 µM

CCOC(=O)C1(C(=O)OCC)CCCN1C(=O)[C@H](CNC(=O)OC(C)(C)C)NC(=O)OCc1ccccc1
inactive: [1] > 100 µM | [2] > 100 µM | [3] > 100 µM | [4] > 100 µM | [5] > 100 µM | [6] > 100 µM | [7] > 100 µM | [8] > 100 µM | [9] > 100 µM | [10] > 100 µM | [11] > 100 µM | [20] > 100 µM | [19] > 100 µM | [13] 67.6 µM | [14] 79.6 µM | [15] > 100 µM | [17] > 100 µM | [18] > 100 µM

CCOC(=O)C(CC(C)C)NC(=O)CSc1nnc(COc2ccc(Cl)cc2)n1-c1ccccc1 (centres undefined)
inactive: [1] 17.1 µM | [2] 20.5 µM | [3] 22.3 µM | [4] 22.4 µM | [5] 18 µM | [6] 16.3 µM | [7] 18.2 µM | [8] 20 µM | [9] 14.8 µM | [10] 16.6 µM | [11] 15.3 µM | [12] 21 µM | [19] 17.9 µM | [13] 10.4 µM | [14] 16.5 µM | [15] 1.86 µM | [16] 12.7 µM | [17] 19.9 µM | [18] 11.2 µM

CC(NC(=O)C(NC(=O)OC(C)(C)C)C(C)C)C(=O)NCC(=O)O (stereo not drawn) (Boc-Val-Ala-Gly-OH; configuration not given here)
inactive: [1] > 100 µM | [2] > 100 µM | [3] > 100 µM | [4] > 10 µM | [5] > 100 µM | [6] > 100 µM | [7] > 100 µM | [8] > 100 µM | [9] > 100 µM | [10] > 100 µM | [11] > 100 µM | [20] > 100 µM | [19] > 100 µM | [13] > 100 µM | [15] > 100 µM | [17] > 100 µM | [18] > 100 µM

O=c1oc(-c2ccc(O)cc2)cc2cc(O)ccc12
inactive: [1] 39 µM | [2] 19.7 µM | [3] 23.6 µM | [5] 24.2 µM | [6] 33.3 µM | [7] 20.2 µM | [8] 25.7 µM | [9] 21.2 µM | [10] 23.5 µM | [11] 39.4 µM | [12] 18.5 µM | [19] 41.6 µM | [13] 23.1 µM | [14] 31.6 µM | [15] 13.3 µM | [16] 14.7 µM | [17] 43.2 µM | [18] 52 µM

CSc1ncnc2c1cnn2Cc1cn(COCC(O)CO)nn1 (centres undefined)
inactive: [1] > 100 µM | [2] > 100 µM | [4] > 100 µM | [5] > 100 µM | [6] > 100 µM | [7] > 100 µM | [8] > 100 µM | [9] > 100 µM | [11] > 100 µM | [12] > 100 µM | [20] > 100 µM | [19] > 100 µM | [13] > 100 µM | [15] > 100 µM | [16] > 100 µM | [17] > 100 µM | [18] > 100 µM

CC1=NN2C(=O)CC(=O)N=C2S1
inactive: [1] > 100 µM | [2] > 100 µM | [3] > 100 µM | [4] > 100 µM | [5] > 100 µM | [6] > 100 µM | [7] > 100 µM | [8] > 100 µM | [9] > 100 µM | [10] > 100 µM | [11] > 100 µM | [12] > 100 µM | [20] > 100 µM | [19] > 100 µM | [14] > 100 µM | [17] > 100 µM | [18] > 100 µM

O/N=C(\C=N\O)c1ccc2c(c1)Sc1ccccc1O2
inactive: [1] 39.8 µM | [3] 24.9 µM | [4] 23.2 µM | [5] 19.9 µM | [7] 21.4 µM | [8] 22.9 µM | [9] 18 µM | [10] 15.8 µM | [11] 17.5 µM | [12] 20.9 µM | [19] 31.4 µM | [13] 23.4 µM | [14] 16.1 µM | [15] 21.4 µM | [16] 15.6 µM | [17] 31.7 µM | [18] 19.5 µM

Cc1c(O)c(OC2OC(CO)C(O)C(O)C2O)cc2c1CC[C@@H]1C2(C)C(=O)C[C@]2(C)[C@@H]([C@@](C)(O)C(O)/C=C/C(C)(C)O)[C@H](O)C[C@@]12C (some centres undefined)
inactive: [1] > 100 µM | [2] > 100 µM | [4] > 100 µM | [5] > 100 µM | [6] > 100 µM | [7] > 100 µM | [8] > 100 µM | [9] > 100 µM | [10] > 100 µM | [11] > 100 µM | [12] > 100 µM | [20] > 100 µM | [19] > 100 µM | [13] > 100 µM | [14] > 100 µM | [15] > 100 µM | [16] > 100 µM | [17] > 100 µM | [18] > 100 µM

O=C(/N=N/c1ccc([N+](=O)[O-])cc1)NNc1ccc([N+](=O)[O-])cc1
inactive: [1] 5.74 µM | [4] 19.5 µM | [5] 13.5 µM | [6] 13.3 µM | [8] 18.7 µM | [9] 11.8 µM | [11] 13.7 µM | [12] 11.9 µM | [20] 11.6 µM | [19] 20.1 µM | [13] 14.2 µM | [14] 23.9 µM | [15] 10.9 µM | [16] 4.46 µM | [17] 14.5 µM | [18] 24.3 µM

NC(=S)N/C=C1\C(=O)Oc2ccccc2C1=O
inactive: [4] 21.9 µM | [5] 48.5 µM | [6] 22.6 µM | [7] > 100 µM | [8] 75.5 µM | [9] 53.5 µM | [10] 18.4 µM | [11] 53.5 µM | [12] > 100 µM | [19] 90.4 µM | [13] 66.8 µM | [14] 14.1 µM | [15] 27.5 µM | [16] 51.4 µM | [17] > 100 µM | [18] > 100 µM
